Measured values from patent US10645928B2, “Pesticidally active polycyclic derivatives with sulfur containing substituents” (Syngenta Participations AG, priority 2014, dated 2020).

How the values were obtained:
Type in all cases: in vivo
[1] = test system: Plutella xylostella (Diamond Back Moth); test: Example B12: Plutella xylostella, treated artificial diet, mortality; conditions: 120 h, application rate of 200 ppm, L2 larvae, 5 days after infestation
Method: (§1) 24-well microtiter plates with artificial diet were treated with aqueous test solutions prepared from 10,000 ppm DMSO stock solutions by pipetting. After drying, the plates were infested with L2 larvae (10 to 15 per well). The samples were assessed for mortality 5 days after infestation.

[2] = test system: Diabrotica balteata (Corn Root Worm); test: Example B2: Diabrotica balteata, sprayed maize sprouts, mortality and growth inhibition; conditions: 96 h, application rate of 200 ppm, L2 larvae, 4 days after infestation, read-out: effect in at least one of the two categories (mortality or growth inhibition)
Method: (§2) Maize sprouts placed onto an agar layer in 24-well microtiter plates were treated with aqueous test solutions prepared from 10,000 ppm DMSO stock solutions by spraying. After drying, the plates were infested with L2 larvae (6 to 10 per well). The samples were assessed for mortality and growth inhibition in comparison to untreated samples 4 days after infestation.

[3] = test system: Spodoptera littoralis (Egyptian Cotton Leaf Worm); test: Example B17: Spodoptera littoralis, sprayed cotton leaf discs, mortality, anti-feeding effect and growth inhibition; conditions: foliar, 72 h, application rate of 200 ppm, L1 larvae, 3 days after infestation, read-out: control (at least one of mortality, anti-feedant effect, growth inhibition)
Method: (§3) Cotton leaf discs were placed onto agar in 24-well microtiter plates and sprayed with aqueous test solutions prepared from 10,000 ppm DMSO stock solutions. After drying the leaf discs were infested with five L1 larvae. The samples were assessed for mortality, anti-feeding effect, and growth inhibition in comparison to untreated samples 3 days after infestation. Control of Spodoptera littoralis by a test sample is given when at least one of the categories mortality, anti-feedant effect, and growth inhibition is higher than the untreated sample.

[4] = test system: Spodoptera littoralis (Egyptian Cotton Leaf Worm); test: Example B16: Spodoptera littoralis, sprayed cotton leaf discs, mortality; conditions: foliar, 72 h, application rate of 200 ppm, L1 larvae, 3 days after infestation
Method: (§4) Cotton leaf discs were placed onto agar in 24-well microtiter plates and sprayed with aqueous test solutions prepared from 10,000 ppm DMSO stock solutions. After drying the leaf discs were infested with five L1 larvae. The samples were assessed for mortality 3 days after infestation.

[5] = test system: Plutella xylostella (Diamond Back Moth); test: Example B13: Plutella xylostella, treated artificial diet, mortality and growth inhibition; conditions: 120 h, application rate of 200 ppm, L2 larvae, 5 days after infestation, read-out: effect in at least one of the two categories (mortality or growth inhibition)
Method: as §1, with “mortality and growth inhibition in comparison to untreated samples” for “mortality”

[6] = test system: Diabrotica balteata (Corn Root Worm); test: Example B3: Diabrotica balteata, sprayed maize sprouts, mortality; conditions: 96 h, application rate of 200 ppm, L2 larvae, 4 days after infestation
Method: as §2, with “mortality” for “mortality and growth inhibition in comparison to untreated samples”

[7] = test system: Bemisia tabaci (Cotton White Fly); test: Example B1: Bemisia tabaci, sprayed cotton leaf discs, mortality; conditions: foliar, 144 h, application rate of 200 ppm, adult white flies, 6 days after incubation
Method: Cotton leaf discs were placed on agar in 24-well microtiter plates and sprayed with aqueous test solutions prepared from 10,000 ppm DMSO stock solutions. After drying the leaf discs were infested with adult white flies. The samples were checked for mortality 6 days after incubation.

[8] = test system: Frankliniella occidentalis (Western Flower Thrips); test: Example B7: Frankliniella occidentalis, sprayed sunflower leaf discs, mortality; conditions: foliar, 168 h, application rate of 200 ppm, population of mixed ages, 7 days after infestation
Method: as §4, with “Sunflower” for “Cotton”, “on” for “onto”, “10,000” for “10,000 ppm”, “a Frankliniella population of mixed ages.” for “five L1 larvae.”, “7” for “3”

[9] = test system: Spodoptera littoralis (Egyptian Cotton Leaf Worm); test: Example B14: Spodoptera littoralis, sprayed cotton leaf discs, anti-feeding effect; conditions: foliar, 72 h, application rate of 200 ppm, L1 larvae, 3 days after infestation
Method: as §3, with “for” for “for mortality,”, “effect” for “effect, and growth inhibition”, “when” for “when at least one of”, “the” for “the categories mortality,”

[10] = test system: Spodoptera littoralis (Egyptian Cotton Leaf Worm); test: Example B15: Spodoptera littoralis, sprayed cotton leaf discs, growth inhibition; conditions: foliar, 72 h, application rate of 200 ppm, L1 larvae, 3 days after infestation, read-out: control (growth inhibition)
Method: as §3, with “for” for “for mortality, anti-feeding effect, and”, “when” for “when at least one of”, “the” for “the categories mortality, anti-feedant effect, and”

[11] = test system: Spodoptera littoralis (Egyptian Cotton Leaf Worm); test: Example B18: Spodoptera littoralis, compound in agar absorbed by lettuce roots, mortality, anti-feedant effect and growth inhibition; conditions: 144 h, test rate of 12.5 ppm, uptake by lettuce roots, Spodoptera eggs, 6 days after infestation, read-out: effect in at least one of the three categories (mortality, anti-feeding, or growth inhibition)
Text: Test compounds were applied by pipette from 10,000 ppm DMSO stock solutions into 24-well plates and mixed with agar. Lettuce seeds were placed onto the agar and the multi well plate was closed by another plate which contained also agar. After 7 days the compound was absorbed by the roots and the lettuce grew into the lid plate. The lettuce leaves were then cut off into the lid plate. Spodoptera eggs were pipetted through a plastic stencil onto a humid gel blotting paper and the lid plate was closed with it. The samples were assessed for mortality, anti-feedant effect and growth inhibition in comparison to untreated samples 6 days after infestation.

[12] = test system: Euschistus heros (Neotropical Brown Stink Bug); test: Example B6: Euschistus heros, sprayed soybean leaves, mortality and growth inhibition; conditions: 120 h, application rate of 200 ppm, N2 nymphs, 5 days after infestation, read-out: effect in at least one of the two categories (mortality or growth inhibition)
Method: Soybean leaves on agar in 24-well microtiter plates were sprayed with aqueous test solutions prepared from 10,000 ppm DMSO stock solutions. After drying the leaves were infested with N2 nymphs. The samples were assessed for mortality and growth inhibition in comparison to untreated samples 5 days after infestation.

[13] = test system: Spodoptera littoralis (Egyptian Cotton Leaf Worm); test: Example B19: Spodoptera littoralis, compound in agar absorbed by lettuce roots, anti-feedant effect; conditions: 144 h, test rate of 12.5 ppm, uptake by lettuce roots, Spodoptera eggs, 6 days after infestation, read-out: anti-feeding
Text: Test compounds were applied by pipette prepared from 10,000 ppm DMSO stock solutions into 24-well plates and mixed with agar. Lettuce seeds were placed onto the agar and the multi well plate was closed by another plate which contained also agar. After 7 days the compound was absorbed by the roots and the lettuce grew into the lid plate. The lettuce leaves were then cut off into the lid plate. Spodoptera eggs were pipetted through a plastic stencil onto a humid gel blotting paper and the lid plate was closed with it. The samples were assessed for anti-feedant effect in comparison to untreated samples 6 days after infestation.

[14] = test system: Euschistus heros (Neotropical Brown Stink Bug); test: Example B5: Euschistus heros, sprayed soybean leaves, mortality; conditions: 120 h, application rate of 200 ppm, N2 nymphs, 5 days after infestation
Method: Soybean leaves on agar in 24-well microtiter plates were sprayed with aqueous test solutions prepared from 10,000 ppm DMSO stock solutions. After drying the leaves were infested with N2 nymphs. The samples were assessed for mortality 5 days after infestation.

[15] = test system: Spodoptera littoralis (Egyptian Cotton Leaf Worm); test: Example B20: Spodoptera littoralis, compound in agar absorbed by lettuce roots, mortality; conditions: 144 h, test rate of 12.5 ppm, uptake by lettuce roots, Spodoptera eggs, 6 days after infestation
Text: Test compounds were applied by pipette prepared from 10,000 ppm DMSO stock solutions into 24-well plates and mixed with agar. Lettuce seeds were placed onto the agar and the multi well plate was closed by another plate which contained also agar. After 7 days the compound was absorbed by the roots and the lettuce grew into the lid plate. The lettuce leaves were then cut off into the lid plate.
Spodoptera eggs were pipetted through a plastic stencil onto a humid gel blotting paper and the lid plate was closed with it. The samples were assessed for mortality 6 days after infestation.

[16] = test system: Aedes aegypti (Yellow Fever Mosquito); test: Example B23: Aedes aegypti, dry deposits in 12 well tissue culture plates, control; conditions: application rate of 200 ppm in ethanol, adult females, after 48 h and/or 24 h
Method: Test solutions, at an application rate of 200 ppm in ethanol, were applied to 12 well tissue culture plates. Once the deposits were dry, five, two to five day old adult female Aedes aegypti were added to each well, and sustained with a 10% sucrose solution in a cotton wool plug. Assessment of knockdown was made one hour after introduction, and mortality was assessed at 24 and 48 hours after introduction.

[17] = test system: Plutella xylostella (Diamond Back Moth); test: Example B10: Plutella xylostella, treated artificial diet, growth inhibition; conditions: 120 h, application rate of 200 ppm, L2 larvae, 5 days after infestation
Method: as §1, with “growth inhibition in comparison to untreated samples” for “mortality”, “infestation. Control of Plutella xylostella by a test sample is given when the growth inhibition is higher than the untreated sample.” for “infestation.”

[18] = test system: Myzus persicae (Green Peach Aphid); test: Example B8: Myzus persicae, sprayed sunflower leaf discs, mortality; conditions: foliar, 144 h, application rate of 200 ppm, leaf disc spray, aphid population of mixed ages, 6 days after infestation
Method: Sunflower leaf discs were placed onto agar in a 24-well microtiter plate and sprayed with aqueous test solutions prepared from 10,000 ppm DMSO stock solutions. After drying, the leaf discs were infested with an aphid population of mixed ages. The samples were assessed for mortality 6 days after infestation.

CCS(=O)(=O)c1cc(-c2ccc(C#N)cc2)cnc1-c1cn2cnc(C(F)(F)F)cc2n1 [Compound P10]
≥ 80%: mortality at 200 ppm [1] | percent effect (mortality or growth inhibition) at 200 ppm [2] | percent control (mortality, anti-feedant effect or growth inhibition) at 200 ppm [3] | mortality at 200 ppm [4] | percent effect (mortality or growth inhibition) at 200 ppm [5] | mortality at 200 ppm [6] | mortality at 200 ppm [7] | mortality at 200 ppm [8] | pest or weed control at 200 ppm [9] | inhibition at 200 ppm [10]

CCS(=O)(=O)c1cc(-n2ccc(C(F)(F)F)n2)cnc1-c1cn2cnc(C(F)(F)F)cc2n1 [Compound P4, 2-[3-ethylsulfonyl-5-[3-(trifluoromethyl)pyrazol-1-yl]-2-pyridyl]-7-(trifluoromethyl)imidazo[1,2-c]pyrimidine]
≥ 80%: mortality at 200 ppm [1] | percent effect (mortality, anti-feeding or growth inhibition) at 12.5 ppm [11] | percent effect (mortality or growth inhibition) at 200 ppm [12] | percent effect (mortality or growth inhibition) at 200 ppm [2] | percent control (mortality, anti-feedant effect or growth inhibition) at 200 ppm [3] | pest or weed control at 12.5 ppm [13] | mortality at 200 ppm [14] | mortality at 12.5 ppm [15] | mortality at 200 ppm [4] | percent effect (mortality or growth inhibition) at 200 ppm [5] | pest or weed control at 200 ppm [16] | mortality at 200 ppm [6] | mortality at 200 ppm [7] | pest or weed control at 200 ppm [9]

CCS(=O)(=O)c1cc(-c2cccc(SC)c2)cnc1-c1cn2cnc(C(F)(F)F)cc2n1 [Compound P9]
≥ 80%: mortality at 200 ppm [1] | percent effect (mortality or growth inhibition) at 200 ppm [12] | percent effect (mortality or growth inhibition) at 200 ppm [2] | percent control (mortality, anti-feedant effect or growth inhibition) at 200 ppm [3] | mortality at 200 ppm [14] | mortality at 200 ppm [4] | inhibition at 200 ppm [17] | percent effect (mortality or growth inhibition) at 200 ppm [5] | pest or weed control at 200 ppm [16] | mortality at 200 ppm [6] | pest or weed control at 200 ppm [9] | inhibition at 200 ppm [10]

CCS(=O)(=O)c1cc(C2CC2)cnc1-c1cn2cnc(C(F)(F)F)cc2n1 [Compound P16, 2-(5-cyclopropyl-3-ethylsulfonyl-2-pyridyl)-7-(trifluoromethyl)imidazo [1,2-c]pyrimidine]
≥ 80%: mortality at 200 ppm [18] | mortality at 200 ppm [1] | percent effect (mortality or growth inhibition) at 200 ppm [12] | percent effect (mortality or growth inhibition) at 200 ppm [2] | percent control (mortality, anti-feedant effect or growth inhibition) at 200 ppm [3] | mortality at 200 ppm [14] | mortality at 200 ppm [4] | inhibition at 200 ppm [17] | percent effect (mortality or growth inhibition) at 200 ppm [5] | pest or weed control at 200 ppm [16] | mortality at 200 ppm [6] | mortality at 200 ppm [8] | pest or weed control at 200 ppm [9] | inhibition at 200 ppm [10]

CCS(=O)(=O)c1cc(-c2ccc(Cl)cc2)cnc1-c1cn2cnc(C(F)(F)C(F)(F)F)cc2n1 [Compound P15]
≥ 80%: mortality at 200 ppm [1] | percent effect (mortality, anti-feeding or growth inhibition) at 12.5 ppm [11] | percent effect (mortality or growth inhibition) at 200 ppm [12] | percent effect (mortality or growth inhibition) at 200 ppm [2] | percent control (mortality, anti-feedant effect or growth inhibition) at 200 ppm [3] | pest or weed control at 12.5 ppm [13] | mortality at 200 ppm [14] | mortality at 12.5 ppm [15] | mortality at 200 ppm [4] | percent effect (mortality or growth inhibition) at 200 ppm [5] | mortality at 200 ppm [7] | mortality at 200 ppm [8] | pest or weed control at 200 ppm [9]
